# Assay results reported in patent publication US20100130613A1, “ADMINISTRATION OF ADAPALENE FOR MODULATING THE EXPRESSION OF CD1d OR IL-10” (GALDERMA RESEARCH & DEVELOPMENT, priority 2007, published 2010).
# Assays:
# lipoxygenase pathway = conditions: background statement; cited from earlier work
# leukotrienes = conditions: background statement; cited from earlier work
# RARγ = target: T1, RARγ (Homo sapiens, UniProt P13631); conditions: background statement; cited from earlier work
# T1 sequence (P13631 1-454): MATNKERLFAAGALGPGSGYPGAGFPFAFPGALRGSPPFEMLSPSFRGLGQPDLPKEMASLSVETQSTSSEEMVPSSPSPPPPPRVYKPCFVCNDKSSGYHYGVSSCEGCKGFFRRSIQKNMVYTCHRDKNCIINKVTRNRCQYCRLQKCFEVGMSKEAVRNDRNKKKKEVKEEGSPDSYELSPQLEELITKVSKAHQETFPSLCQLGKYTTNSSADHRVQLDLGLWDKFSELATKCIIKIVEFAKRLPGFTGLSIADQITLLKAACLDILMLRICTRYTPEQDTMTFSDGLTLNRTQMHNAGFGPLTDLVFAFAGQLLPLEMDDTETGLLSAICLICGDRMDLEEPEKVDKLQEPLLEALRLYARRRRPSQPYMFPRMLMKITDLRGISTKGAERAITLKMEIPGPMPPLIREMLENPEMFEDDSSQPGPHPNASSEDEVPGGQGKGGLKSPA
# IL-10 [1] = experiment: IL-10 expression in healthy human skin explants, immunohistochemistry; type: cell-based; conditions: 24 hours
# Description: (§1) Healthy human skin: fragments of healthy skin originating from 8 healthy donors were obtained from a mammary plasty (plastic surgery) or a foreskin (infant surgery).
# (§2) Fragments (4 mm in diameter) originating from biopsies of inflammatory skin, considered to be an inflammatory model, and of healthy skin, were incubated at 37° C. in a humid atmosphere and in the presence of 5% CO2 for 24 hours in KGM culture medium without hydrocortisone (PromoCell GmbH, Heidelberg, Germany). The culture medium was supplemented with two different concentrations of adapalene (Galderma, Sophia Antipolis, France): 10^−7 M and 10^−6 M. The culture medium alone served as control medium.
# (§3) After incubation, the explants were removed from the culture medium and were then frozen in liquid nitrogen for the immunohistochemical study. The culture supernatants were stored at −80° C. for subsequent measurement of protein secretion, by an ELISA assay technique. […]
# (§4) The labeling intensity was quantified according to a semi-quantitative scale: none (0), weak (1), medium (2) and strong (3). For each slide, the labeling intensity was determined using a mean of three fields. […] The reading was performed by two independent investigators.
# (§5) All the results are expressed as mean +/−SEM. The statistical significance of differences from the values (by comparison to the control medium) was determined by means of the paired Wilcoxon test. […]
# [2] = tested on: cellular retinoic acid binding proteins; conditions: background statement; cited from earlier work
# RARβ = target: T2, RARβ (Homo sapiens, UniProt P10826); conditions: background statement; cited from earlier work
# T2 sequence (P10826 1-455): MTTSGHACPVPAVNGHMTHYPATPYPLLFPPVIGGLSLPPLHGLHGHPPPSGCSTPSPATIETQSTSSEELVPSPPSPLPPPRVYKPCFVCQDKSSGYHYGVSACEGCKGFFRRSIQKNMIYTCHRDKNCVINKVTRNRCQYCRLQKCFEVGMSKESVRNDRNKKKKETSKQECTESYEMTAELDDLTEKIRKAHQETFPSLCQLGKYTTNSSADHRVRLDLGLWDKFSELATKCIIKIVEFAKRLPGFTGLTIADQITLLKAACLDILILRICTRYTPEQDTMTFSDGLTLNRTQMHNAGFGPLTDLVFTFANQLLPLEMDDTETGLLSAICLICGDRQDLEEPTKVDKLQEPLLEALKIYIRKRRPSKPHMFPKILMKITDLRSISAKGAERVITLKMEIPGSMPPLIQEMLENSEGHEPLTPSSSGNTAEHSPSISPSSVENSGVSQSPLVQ
# IL-10 [3] = experiment: IL-10 secretion in culture supernatants of acneic skin explants, ELISA; type: cell-based, human; conditions: 24 hours, control medium 5.7 pg/ml (+/−7.1)
# Text: (§6) Inflammatory lesions of acne: a skin biopsy (1×1.5 cm) was obtained under local anaesthesia from a superficial inflammatory lesion (papula) on the back in 8 patients suffering from moderate acne and undergoing no topical treatment (for the last two weeks) or general treatment (for the last month, or three months for isotretinoin). The fragments taken were immediately placed in culture.
# as §2, with “medium. […]” for “medium.”
# (§7) The concentrations of IL-10 were measured in the culture supernatants using a solid-phase ELISA (Enzyme Linked ImmunoSorbent Assay) sandwich kit, obtained from BioSource (International Inc, Ca, USA).
# (§8) The slides were read at 450 nm using an Emax reader (Molecular Devices, CA, USA). […]
# as §5
# IL-10 [4] = experiment: IL-10 secretion in culture supernatants of healthy human skin explants, ELISA; type: cell-based; conditions: 24 hours, control medium 17.8 pg/ml
# Description: as §1, §2
# After incubation, the explants were removed from the culture medium and were then frozen in liquid nitrogen for the immunohistochemical study. […]
# as §7, §8, §5
# [5] = tested on: superficial inflammatory lesions; conditions: clinically; Millikan, Int. J. Dermatol. 2000; cited from earlier work
# CD1d [6] = experiment: CD1d expression in acneic skin explants, immunohistochemistry; type: cell-based, human; conditions: 24 hours, control medium 0.9 (+/−0.2), p=0.034
# Text: as §6
# as §2, with “medium. […]” for “medium.”
# as §4, §5
# free radicals = conditions: background statement; cited from earlier work
# CD1d [7] = experiment: CD1d expression in healthy human skin explants, immunohistochemistry; type: cell-based; conditions: 24 hours, versus control medium
# Description: as §1, §2, §3, §4, §5
# IL-10 [8] = experiment: IL-10 expression in acneic skin explants, immunohistochemistry; type: cell-based, human; conditions: 24 hours, control medium 1.9 (+/−0.4)
# Text: as §6
# as §2, with “medium. […]” for “medium.”
# as §4, §5
# [9] = tested on: polymorphonuclear neutrophils; conditions: background statement; cited from earlier work
structure (smiles),measurement,setting,value
"COc1ccc(-c2ccc3cc(C(=O)O)ccc3c2)cc1C12CC3CC(CC(C3)C1)C2 [adapalene, 6-[3-(1-adamantyl)-4-methoxyphenyl]-2-naphthoic acid]",oxidative metabolism of arachidonic acid via the lipoxygenase pathway,lipoxygenase pathway,inhibits
same,production of leukotrienes via the lipoxygenase pathway,leukotrienes,inhibits
same,binding to RARγ,RARγ,binds selectively
same,inhibitory effect on the expression of IL-10,"IL-10 [1]; 10^−6 M adapalene, versus control medium, p=0.016",significant
same,expression of IL-10 in the epidermis (labeling intensity),"IL-10 [1]; 10^−7 M and 10^−6 M adapalene, dose-dependent",significantly decreases
same,binding to cellular retinoic acid binding proteins,[2],"does not, on the other hand, bind"
same,binding to RARβ,RARβ,binds selectively
same,IL-10 level in supernatants,IL-10 [3]; 10^−6 M adapalene,4.0 pg/mL
same,IL-10 level in supernatants,IL-10 [3]; 10^−7 M adapalene,6.1 pg/mL
same,secretion of IL-10 in supernatants,IL-10 [4]; 10^−6 M adapalene,No modulation
same,secretion of IL-10 in supernatants,IL-10 [4]; 10^−7 M adapalene,increases the secretion of IL-10
same,clinical activity on superficial inflammatory lesions,[5],exhibits an activity on superficial inflammatory lesions
same,"expression of CD1d (labeling intensity, scale 0-3, mean +/−SEM)",CD1d [6]; 10^−6 M adapalene,1.5 (+/−0.5)
same,"expression of CD1d (labeling intensity, scale 0-3, mean +/−SEM)",CD1d [6]; 10^−7 M adapalene,1.5 (+/−0.5)
same,production of free radicals,free radicals,inhibits
same,expression of CD1d in the epidermis (labeling intensity),"CD1d [7]; 10^−6 M adapalene, p=0.035",significantly decreases
same,expression of CD1d in the epidermis (labeling intensity),"CD1d [7]; 10^−7 M adapalene, p=0.023",significantly decreases
same,"intensity of IL-10 expression (scale 0-3, mean +/−SEM)","IL-10 [8]; 10^−6 M adapalene, p=0.0199",0.6 (+/−0.2)
same,"intensity of IL-10 expression (scale 0-3, mean +/−SEM)","IL-10 [8]; 10^−7 M adapalene, p=0.024",0.9 (+/−0.2)
same,chemotaxis of polymorphonuclear neutrophils,[9],inhibits
